Test results from patent US10406335B2, “Drug delivery systems and methods for treatment of prostate” (TARIS Biomedical LLC, priority 2012, dated 2019).

Legend:
[1] = Oxaliplatin or cisplatin tissue uptake after intra-urinary bladder perfusion or IV bolus in rats; settings: 6- or 24-hour continuous bladder perfusion; FIG. 10 and FIG. 11
[2] = 14C gemcitabine tissue uptake after intra-urinary bladder perfusion or IV bolus in rats; type: in vivo, male Sprague Dawley rats
Procedure: The 6- and 24-hour continuous perfusions perfused 6.9 and 26.6 mg, respectively, of gemcitabine into the bladder. The single IV bolus included 5.0 mg of gemcitabine.
Blood (FIG. 8), urine, and tissue samples (e.g., bladder, prostate) (FIGS. 7 and 9) were collected and analyzed for gemcitabine content. The results are illustrated in FIGS. 7-9.

[3] = system: prostate cancer; settings: Phase 2 clinical studies; cited from earlier work

O=C1[O][Pt]2([NH][C@@H]3CCCC[C@H]3[NH]2)[O]C1=O [oxaliplatin]
bladder concentrations [1]: achieving therapeutic bladder concentrations

Nc1ccn([C@@H]2O[C@H](CO)[C@@H](O)C2(F)F)c(=O)n1 [gemcitabine]
gemcitabine levels in bladder tissue ([2]; 6- or 24-hour continuous bladder perfusion (6.9 and 26.6 mg), sustained urine concentrations, FIG. 9): at or exceed therapeutic concentrations
concentration of gemcitabine in the bladder ([2]; 24 hours after a clinically relevant IV dose (5.0 mg bolus), compared with bladder perfusion, FIG. 9): significantly lower concentration
prostate gemcitabine tissue concentrations ([2]; after bladder perfusion, compared with IV administration, FIG. 7): substantially higher than those observed after IV administration
efficacy in prostate cancer patients [3]: limited efficacy
